Reference: patent publication US20100298141A1, “SUBSTITUTED PYRIDINE N-OXIDE HERBICIDES” (E. I. DU PONT DE NEMOURS AND COMPANY, priority 2007, published 2010)

Key:
Assay in all cases: Test F preemergence test
Details in all cases: scale 0 to 100
large crabgrass = assay type: in vivo, Digitaria sanguinalis
Method in brief: (§1)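 Compounds in a non-phytotoxic solvent formulation with surfactant were applied before emergence after sowing, or, for sugarcane, also postemergence. Evaluation was visual, against controls, after 14 to 21 greenhouse days.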

green foxtail = assay type: in vivo, Setaria viridis
Method in brief: as §1

goosegrass = assay type: in vivo, Eleusine indica
Method in brief: as §1

johnsongrass = assay type: in vivo, Sorghum halepense
Method in brief: as §1

pitted morningglory = assay type: in vivo, Ipomoea lacunosa
Method in brief: as §1

purple nutsedge = assay type: in vivo, Cyperus rotundus
Method in brief: as §1

common ragweed = assay type: in vivo, Ambrosia elation
Method in brief: as §1

barnyardgrass = assay type: in vivo, Echinochloa crus-galli
Method in brief: as §1

southern sandbur = assay type: in vivo, Cenchrus echinatus
Method in brief: as §1

Italian ryegrass = assay type: in vivo, Lolium multiflorum
Method in brief: as §1

common purslane = assay type: in vivo, Portulaca oleracea
Method in brief: as §1

common groundsel = assay type: in vivo, Senecio vulgaris
Method in brief: as §1

annual bluegrass = assay type: in vivo, Poa annua
Method in brief: as §1

naked crabgrass = assay type: in vivo, Digitaria nuda
Method in brief: as §1

itchgrass = assay type: in vivo, Rottboellia cochinchinensis
Method in brief: as §1

field bindweed = assay type: in vivo, Convolvulus arvensis
Method in brief: as §1

## Cn1nc(C(F)(F)F)c(C[S+]([O-])c2cccc[n+]2[O-])c1Cl (stereo not drawn) [Compound 8]
Large crabgrass; 62 g ai/ha, Preemergence
  Crabgrass, Large plant response rating: 90
Large crabgrass; 125 g ai/ha, preemergence
  Crabgrass, Large plant response rating: 98
Large crabgrass; Preemergence, 16 g ai/ha
  Plant response rating, Crabgrass, Large: 0
Large crabgrass; Preemergence, 31 g ai/ha
  Plant response rating, Crabgrass, Large: 65
Green foxtail; 62 g ai/ha, Preemergence
  Foxtail, Green plant response rating: 80
Green foxtail; 125 g ai/ha, preemergence
  Foxtail, Green plant response rating: 90
Green foxtail; Preemergence, 16 g ai/ha
  Plant response rating, Foxtail, Green: 0
Green foxtail; Preemergence, 31 g ai/ha
  Plant response rating, Foxtail, Green: 70
goosegrass; 62 g ai/ha, Preemergence
  Goosegrass plant response rating: 80
goosegrass; 125 g ai/ha, preemergence
  Goosegrass plant response rating: 100
goosegrass; Preemergence, 16 g ai/ha
  Plant response rating, Goosegrass: 0
goosegrass; Preemergence, 31 g ai/ha
  Plant response rating, Goosegrass: 70
johnsongrass; 62 g ai/ha, Preemergence
  Johnsongrass plant response rating: 95
johnsongrass; 125 g ai/ha, preemergence
  Johnsongrass plant response rating: 95
johnsongrass; Preemergence, 16 g ai/ha
  Plant response rating, Johnsongrass: 0
johnsongrass; Preemergence, 31 g ai/ha
  Plant response rating, Johnsongrass: 75
Pitted morningglory; 62 g ai/ha, Preemergence
  Morningglory plant response rating: 0
Pitted morningglory; 125 g ai/ha, preemergence
  Morningglory plant response rating: 35
Pitted morningglory; Preemergence, 16 g ai/ha
  Plant response rating, Morningglory: 0
Pitted morningglory; Preemergence, 31 g ai/ha
  Plant response rating, Morningglory: 0
Purple nutsedge; 62 g ai/ha, Preemergence
  Purple Nutsedge plant response rating: 50
Purple nutsedge; 125 g ai/ha, preemergence
  Purple Nutsedge plant response rating: 65
Purple nutsedge; Preemergence, 16 g ai/ha
  Plant response rating, Purple Nutsedge: 0
Purple nutsedge; Preemergence, 31 g ai/ha
  Plant response rating, Purple Nutsedge: 0
Common ragweed; 62 g ai/ha, Preemergence
  Ragweed plant response rating: 35
Common ragweed; 125 g ai/ha, preemergence
  Ragweed plant response rating: 80
Common ragweed; Preemergence, 16 g ai/ha
  Plant response rating, Ragweed: 0
Common ragweed; Preemergence, 31 g ai/ha
  Plant response rating, Ragweed: 35
barnyardgrass; 62 g ai/ha, Preemergence
  Barnyardgrass plant response rating: 95
barnyardgrass; 125 g ai/ha, preemergence
  Barnyardgrass plant response rating: 100
barnyardgrass; Preemergence, 16 g ai/ha
  Plant response rating, Barnyardgrass: 70
barnyardgrass; Preemergence, 31 g ai/ha
  Plant response rating, Barnyardgrass: 80
Southern sandbur; 62 g ai/ha, Preemergence
  Sandbur plant response rating: 80
Southern sandbur; 125 g ai/ha, preemergence
  Sandbur plant response rating: 100
Southern sandbur; Preemergence, 31 g ai/ha
  Plant response rating, Sandbur: 10
Italian ryegrass; 62 g ai/ha, Preemergence
  Ryegrass, Italian plant response rating: 75
Italian ryegrass; 125 g ai/ha, preemergence
  Ryegrass, Italian plant response rating: 100
Italian ryegrass; Preemergence, 16 g ai/ha
  Plant response rating, Ryegrass, Italian: 0
Italian ryegrass; Preemergence, 31 g ai/ha
  Plant response rating, Ryegrass, Italian: 40
Common purslane; 62 g ai/ha, Preemergence
  Purslane plant response rating: 15
Common purslane; 125 g ai/ha, preemergence
  Purslane plant response rating: 20
Common purslane; Preemergence, 16 g ai/ha
  Plant response rating, Purslane: 0
Common purslane; Preemergence, 31 g ai/ha
  Plant response rating, Purslane: 0
Common groundsel; 62 g ai/ha, Preemergence
  Groundsel plant response rating: 65
Common groundsel; 125 g ai/ha, preemergence
  Groundsel plant response rating: 80
Common groundsel; Preemergence, 16 g ai/ha
  Plant response rating, Groundsel: 0
Common groundsel; Preemergence, 31 g ai/ha
  Plant response rating, Groundsel: 0
Annual bluegrass; 62 g ai/ha, Preemergence
  Bluegrass plant response rating: 0
Annual bluegrass; 125 g ai/ha, preemergence
  Bluegrass plant response rating: 70
Annual bluegrass; Preemergence, 16 g ai/ha
  Plant response rating, Bluegrass: 0
Annual bluegrass; Preemergence, 31 g ai/ha
  Plant response rating, Bluegrass: 0
Naked crabgrass; 62 g ai/ha, Preemergence
  Crabgrass, Naked plant response rating: 90
Naked crabgrass; 125 g ai/ha, preemergence
  Crabgrass, Naked plant response rating: 100
Naked crabgrass; Preemergence, 16 g ai/ha
  Plant response rating, Crabgrass, Naked: 60
Naked crabgrass; Preemergence, 31 g ai/ha
  Plant response rating, Crabgrass, Naked: 75
itchgrass; 62 g ai/ha, Preemergence
  Itchgrass plant response rating: 80
itchgrass; 125 g ai/ha, preemergence
  Itchgrass plant response rating: 95
itchgrass; Preemergence, 16 g ai/ha
  Plant response rating, Itchgrass: 0
itchgrass; Preemergence, 31 g ai/ha
  Plant response rating, Itchgrass: 15
Field bindweed; 62 g ai/ha, Preemergence
  Field Bindweed plant response rating: 15
Field bindweed; 125 g ai/ha, preemergence
  Field Bindweed plant response rating: 70
Field bindweed; Preemergence, 16 g ai/ha
  Plant response rating, Field Bindweed: 0
Field bindweed; Preemergence, 31 g ai/ha
  Plant response rating, Field Bindweed: 0
